In patent US12648933B2, “Pharmaceutical preparation” (KOWA COMPANY, LTD., priority 2018, dated 2026):
Entries after “also recorded” stand apart in the source; their conditions may differ.

Experiment: Examination on Stability (storage at 60° C. and 80% RH for 21 days, state of sample)
Assay type: physicochemical
Conditions: glass vessel with lid opened (1-1 to 1-3) or closed glass bottle = tight package (1-4)
From the text: Examination on Stability […] […] Pemafibrate as it was placed in a glass vessel with a lid opened and labeled as Sample 1-1. […] Ethylcellulose ([…] Co., Ltd.) was mixed with pemafibrate in a ratio of 1 part by mass to 1 part by mass of pemafibrate to obtain a mixture. […] Ethylcellulose ([…] Co., Ltd.) was mixed with pemafibrate in a ratio of 1 part by mass to 1 part by mass of pemafibrate to obtain a mixture.

State of mixture, immediately after the start of storage (start of storage): White powder
SMILES: CC[C@@H](Oc1cccc(CN(CCCOc2ccc(OC)cc2)c2nc3ccccc3o2)c1)C(=O)O [Sample 1-1, (2R)-2-[3-([1,3-Benzoxazol-2-yl[3-(4-methoxyphenoxy)propyl]amino]methyl)phenoxy]butanoic acid]
State of mixture, 21 days later (after 21 days of storage): maintained the same state; also recorded: White powder
